Columns and labels:
Format in all cases: functional
HOP-92 = test: Growth inhibition of human HOP-92 cells incubated for 48 hrs by sulforhodamine B assay
NCI-H23 = test: Growth inhibition of human NCI-H23 cells incubated for 48 hrs by sulforhodamine B assay
Malme-3M = test: Growth inhibition of human Malme-3M cells incubated for 48 hrs by sulforhodamine B assay; settings: for CC50: read-out: LC50 (the source's name)
UACC-62 = test: Growth inhibition of human UACC-62 cells incubated for 48 hrs by sulforhodamine B assay
IGROV-1 = test: Growth inhibition of human IGROV-1 cells incubated for 48 hrs by sulforhodamine B assay; settings: for CC50: read-out: LC50 (the source's name)
CCRF-CEM = test: Growth inhibition of human CCRF-CEM cells incubated for 48 hrs by sulforhodamine B assay

Row | SMILES | GI50 (HOP-92) [µM] | LC50 (concentration killing 50% of cells) (HOP-92) [µM] | TGI (HOP-92) [µM] | GI50 (NCI-H23) [µM] | LC50 (lethal concentration 50%) (NCI-H23) [µM] | TGI (NCI-H23) [µM] | GI50 (Malme-3M) [µM] | TGI (Malme-3M) [µM] | CC50 (Malme-3M) [µM] | GI50 (UACC-62) [µM] | LC50 (UACC-62) [µM] | TGI (UACC-62) [µM] | GI50 (IGROV-1) [µM] | TGI (IGROV-1) [µM] | CC50 (IGROV-1) [µM] | GI50 (CCRF-CEM) [µM] | TGI (CCRF-CEM) [µM] | CC50 (CCRF-CEM; read-out: LC50 (the source's name)) [µM]
1 | O=C(CNc1ccc(Cl)cc1)Nc1ccc(-c2nc3ccccc3s2)cc1 | 2.4 | 37.8 | 8.11 | 2.04 | 21.6 | 4.7 | 1.98 | 4.22 | 8.99 | 1.7 | 19.4 | 4.22 | 1.9 | 4.27 | 9.59 |  |  | 
2 | O=C(CNc1c(Cl)cccc1Cl)Nc1ccc(-c2nc3ccccc3s2)cc1 | 1.88 | 26.7 | 6.3 | 2 | 17.1 | 4.59 | 1.71 | 3.43 | 6.88 | 1.72 | 8.97 | 3.92 | 1.92 | 4.33 | 9.73 | 0.657 | 2.97 | 45.9

From ChEMBL document CHEMBL4765227, “Hit to lead optimization of a series of N-[4-(1,3-benzothiazol-2-yl)phenyl]acetamides as monoacylglycerol lipase inhibitors with potential anticancer activity” (Eur J Med Chem, 2016)
